Reference: patent publication US20150232420A1, “TRANSGLUTAMINASE TG2 INHIBITORS, PHARMACEUTICAL COMPOSITIONS, AND METHODS OF USE THEREOF” (priority 2012, published 2015)
Where two headings read alike, the source gives them in different places.

Assays:
kinetic solubility assay = type: physicochemical
human TG2 = molecular target: T1, human TG2 (Homo sapiens, UniProt P21980); assay: fluorescent screening assay for human TG2; type: biochemical
T1 sequence (P21980 1-687): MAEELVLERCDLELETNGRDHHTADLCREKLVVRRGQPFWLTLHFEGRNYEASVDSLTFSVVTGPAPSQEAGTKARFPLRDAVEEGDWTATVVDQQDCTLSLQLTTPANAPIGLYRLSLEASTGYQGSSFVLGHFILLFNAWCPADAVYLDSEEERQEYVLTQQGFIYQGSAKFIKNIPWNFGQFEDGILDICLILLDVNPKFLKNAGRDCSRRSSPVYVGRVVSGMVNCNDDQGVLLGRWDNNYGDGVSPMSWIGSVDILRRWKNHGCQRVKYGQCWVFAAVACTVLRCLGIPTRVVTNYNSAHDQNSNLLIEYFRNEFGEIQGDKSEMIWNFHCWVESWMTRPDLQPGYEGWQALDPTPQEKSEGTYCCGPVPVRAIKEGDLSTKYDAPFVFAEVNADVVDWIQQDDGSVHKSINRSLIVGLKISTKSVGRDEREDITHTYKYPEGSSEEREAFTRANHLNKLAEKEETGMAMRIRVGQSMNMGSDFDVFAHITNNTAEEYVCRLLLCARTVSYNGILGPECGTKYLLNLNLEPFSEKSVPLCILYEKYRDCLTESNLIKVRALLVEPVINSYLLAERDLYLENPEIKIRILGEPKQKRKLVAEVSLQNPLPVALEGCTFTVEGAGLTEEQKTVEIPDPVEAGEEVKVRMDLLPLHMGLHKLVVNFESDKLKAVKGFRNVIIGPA
Experimental: The fluorescent screening assay for human TG2 was performed as described herein: Assay conditions were 20 nM TG2, 8 μM N,N-dimethylated Casein (NMC) and 16 μM K×D (used for all transglutaminase assays) in 25 mM Hepes, pH 7.4, 250 mM NaCl, 2 mM MgCl2, 0.5 mM CaCl2, 0.2 mM DTT, 0.05% Pluronic F-127 at 37° C. A time point was taken with a microplate reader (Safire or Ultra, Tecan; ex: 350 nm, em: 535 nm) every 3 minutes for up to 2 hours and the initial linear reaction progress was used to determine the reaction velocity as a measure for enzyme activity. Assay conditions were identical for human TG6 and similar for human TG1 and mouse TG2 apart from enzyme concentration (mTG2 at 5 nM; TG1 at 10 nM) and CaCl2 concentration (0.2 mM for mTG2; 0.05 mM for TG1). Factor XIIIa was activated using 0.1 μg/μl thrombin (Sigma) in 35 mM Tris pH 8.0 for 20 min at 30° C. and the transamidation reaction was performed with 20 nM Factor XIIIa in 50 mM Tris pH 8.0, 1.25 mM CaCl2, 0.05% Pluronic, 0.2 mM DTT. TG3 was activated with 0.02 μg/μl thrombin under the same conditions as Factor XIIIa and assay conditions were 10 nM TG3 in 50 mM Hepes, pH 8, 20 mM CaCl2, 0.2 mM DTT, 0.05% Pluronic F-127.

[1] = tested on: wild type MDCKII cell line; assay: Permeability in wild type MDCK monolayers; type: in vitro ADME; details: MDCK study; in words
Experimental: (§1) The MDR1-MDCKII and wild type MDCKII cell lines were cultured in accordance with the guidelines provided by Solvo Biotechnology. Both wild-type MDCK and MDR1-MDCK cells were seeded at a cell density of 2.3×10^5 cells/well into 24-well Transwell plates and cultured for three days to form monolayers. Test compound was loaded into the donor compartments of the Transwell plate (24-well) bearing MDR1-MDCK or wild type MDCK monolayers. Test compound was added to either the apical or basolateral chambers of the Transwell plate assembly at a concentration of 10 μM in Hanks' Balanced Salt Solution containing 25 mM HEPES (pH 7.4). Lucifer Yellow was added to the apical buffer in all wells and its permeation monitored to assess integrity of the cell layer. As Lucifer Yellow (LY) cannot freely permeate lipophilic barriers, a high degree of LY transport indicates poor integrity of the cell layer and wells with LY permeability >100 nm/s are rejected.

[2] = Permeability in wild type MDCK monolayers; type: in vitro ADME; details: dog; wild type MDCK, apical to basolateral, 10 μM, pH 7.4; read-out: MDCK-WT Papp A-B
Experimental: as §1

[3] = Liver microsomal stability (human); type: in vitro ADME
Experimental: (§2) Incubations of test compound (1 μM initial concentration, n=2) were carried out with pooled hepatic liver microsomes (0.25 mg protein/mL in 0.1 M phosphate buffer pH7.4). NADPH (1 mM) was added to initiate the reactions. The incubations were performed at 37° C. Samples (100 μL) were taken from the incubation at 0, 5, 10, 20 and 40 min and added to 100 μL of acetonitrile containing carbamazepine as analytical internal standard, to terminate the reaction. Samples were centrifuged and the supernatant fractions analyzed using LC-MS/MS.
(§3) For all incubations, the instrument response (i.e. chromatographic peak area or peak height, normalized by internal standard), at each time-point were referenced to the zero time-point samples (as 100%) in order to determine the percentage of compound remaining at that time-point. Plots of the natural logarithm (Ln) of the percent of parent remaining for each compound, versus time, were used to determine the half-life in the incubation of interest.
(§4) Half-life values (t1/2) were calculated from the relationship: t1/2 (min)=−0.693/λ where λ was the slope of the Ln concentration versus time curve.
For incubations in hepatic liver microsomes, the in vitro intrinsic clearance, Clint (μL/min/mg microsomal protein), was calculated using the following formula:
Clint=(0.693/t1/2 microsomal)*(ml incubation/mg microsomal protein)*(mg microsomal protein/g liver)*(g liver/kg body weight)

Plasma stability (human) = type: in vitro ADME; details: pooled plasma
Experimental: (§5) Incubations of test compound (1 μM initial concentration, n=2) were carried out with pooled plasma or BSA (45 mg/mL in 0.1 M phosphate buffered saline pH 7.4). The incubations were performed at 37° C. Samples (50 μL) were obtained from the incubation at 0, 10, 30, 120, 240, 360 and 1440 min, and added to 150 μL of acetonitrile containing carbamazepine as analytical internal standard to terminate the reaction. Samples were centrifuged and the supernatant fractions analyzed using LC-MS/MS.
as §3, §4

[4] = Liver microsomal stability (mouse); type: in vitro ADME
Experimental: as §2, §3, §4
For incubations in hepatic liver microsomes, the in vitro intrinsic clearance, Clint (μL/min/mg microsomal protein), was calculated using the following formula: […]

Plasma stability (mouse) = type: in vitro ADME; details: pooled plasma
Experimental: as §5, §3, §4

P-glycoprotein (P-gp) = molecular target: T2, P-glycoprotein (P-gp) (Homo sapiens, UniProt P08183); assay: Effective efflux ratio in MDCK-MDR1; type: in vitro ADME
T2 construct: host or cells: MDCKII (MDR1-MDCKII)
T2 sequence (P08183 whole entry): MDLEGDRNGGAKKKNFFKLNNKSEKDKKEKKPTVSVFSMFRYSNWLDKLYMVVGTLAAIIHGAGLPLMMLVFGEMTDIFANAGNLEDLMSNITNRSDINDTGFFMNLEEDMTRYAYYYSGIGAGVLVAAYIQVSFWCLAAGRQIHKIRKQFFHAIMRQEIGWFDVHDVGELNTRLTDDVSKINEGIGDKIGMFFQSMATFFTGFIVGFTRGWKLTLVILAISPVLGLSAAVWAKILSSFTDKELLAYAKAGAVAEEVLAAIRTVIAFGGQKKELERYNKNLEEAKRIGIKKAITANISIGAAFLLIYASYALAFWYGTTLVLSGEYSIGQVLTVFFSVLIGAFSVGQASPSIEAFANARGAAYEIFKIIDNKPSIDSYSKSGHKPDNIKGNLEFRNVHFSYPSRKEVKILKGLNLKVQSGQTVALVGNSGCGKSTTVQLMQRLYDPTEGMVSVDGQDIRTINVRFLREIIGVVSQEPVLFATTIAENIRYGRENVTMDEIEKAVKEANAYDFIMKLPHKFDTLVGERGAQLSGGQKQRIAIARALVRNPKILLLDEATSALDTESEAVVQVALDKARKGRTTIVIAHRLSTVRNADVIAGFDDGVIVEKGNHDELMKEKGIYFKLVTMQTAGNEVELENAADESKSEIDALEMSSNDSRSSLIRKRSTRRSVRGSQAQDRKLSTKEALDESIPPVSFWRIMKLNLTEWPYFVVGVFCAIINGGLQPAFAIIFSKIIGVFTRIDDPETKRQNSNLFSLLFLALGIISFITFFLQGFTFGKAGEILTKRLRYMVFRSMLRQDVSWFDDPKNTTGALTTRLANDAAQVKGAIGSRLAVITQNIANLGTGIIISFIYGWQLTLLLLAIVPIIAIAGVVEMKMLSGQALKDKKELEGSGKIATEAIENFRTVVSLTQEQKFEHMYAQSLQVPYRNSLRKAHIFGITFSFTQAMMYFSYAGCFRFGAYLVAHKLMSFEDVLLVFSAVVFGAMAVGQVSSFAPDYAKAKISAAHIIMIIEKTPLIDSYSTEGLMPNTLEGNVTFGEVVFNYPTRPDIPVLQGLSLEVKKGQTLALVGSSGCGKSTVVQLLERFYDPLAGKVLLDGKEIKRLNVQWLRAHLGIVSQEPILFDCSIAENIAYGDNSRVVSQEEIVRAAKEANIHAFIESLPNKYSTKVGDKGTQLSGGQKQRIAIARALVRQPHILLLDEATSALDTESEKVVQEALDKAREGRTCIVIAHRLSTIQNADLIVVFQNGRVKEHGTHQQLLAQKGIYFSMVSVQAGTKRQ
Experimental: as §1
P-glycoprotein (P-gp) is one of the main efflux transporters in brain; the potential for compound 1 and compound 2 to be effluxed by P-gp was assessed in an MDCK-MDR1 transfected cell line.

- solubility in a kinetic solubility assay (kinetic solubility assay; in words): good solubility
- Aq. Sol. (kinetic solubility assay; kinetic solubility): 0.06 mg/mL
- IC50 (human TG2; Table 7, 20 nM TG2, 37° C., read-out: IC50): < 100 nM
- IC50 (human TG2; Table 8, read-out: TG2 IC50): 60 nM
- permeability [1]: good permeability
- Papp A→B at 10 μM [2]: 30.3 ×10⁻⁶ cm/s
- metabolic stability in liver microsomal stability testing ([3]; human, in words): poor
- microsomal CLint at 1 μM ([3]; pooled liver microsomes, pH 7.4, human liver microsomes, 1 μM, 0.25 mg protein/mL, NADPH, read-out: hLM Clint): > 1390 µL/min/mg
- half-life at 1 μM (Plasma stability (human); human plasma, 1 μM, 37° C., read-out: Human Plasma T1/2): > 8 h
- half-life at 1 μM (Plasma stability (human); read-out: half-life in human plasma): > 24 h
- metabolic stability in liver microsomal stability testing ([4]; mouse, in words): poor
- microsomal CLint at 1 μM ([4]; pooled liver microsomes, pH 7.4, mouse liver microsomes, 1 μM, 0.25 mg protein/mL, NADPH, read-out: mLM Clint): > 1390 µL/min/mg
- half-life at 1 μM (Plasma stability (mouse); mouse plasma, 1 μM, 37° C., read-out: Mouse Plasma T1/2): > 8 h
- half-life at 1 μM (Plasma stability (mouse); read-out: half-life in mouse plasma): > 24 h
- active efflux via P-gp (P-glycoprotein (P-gp); MDCK-MDR1 transfected cell line, in words): high active efflux
- MDCK-MDR1 EER (P-glycoprotein (P-gp); effective efflux ratio, 10 μM): 7.1
Compound: C=CC(=O)NCCCC[C@H](NC(=O)Cc1ccccc1)C(=O)N1CCN(c2cccc(C)n2)CC1 [compound 2, N-[(5S)-6-[4-(6-methylpyridin-2-yl)piperazin-1-yl]-6-oxo-5-(2-phenylacetamido)hexyl]prop-2-enamide]
